# According to patent US9469836B2, “Antifungal metabolites from fungal endophytes of Pinus strobus” (J.D. IRVING, LIMITED, priority 2011, dated 2016):
# Tests used:
# Format in all cases: cell-based
# Saccharomyces cerevisae [1] = assay: Disc diffusion (Oxford) antifungal assay, yeast; details: isolated compounds
# Experimental: (§1) The term “toxicity” as used herein with respect to the effect of a toxin compound or toxigenic endophyte strain on a pest means inhibited or reduced growth and/or pest death in the presence of the toxin compound or toxigenic endophyte compared to a control. For example, where toxicity is assessed using a disc diffusion assay, which uses a disc comprising a compound, which is placed on a microbial lawn, the compound is a toxic compound if it results in a zone of clearing around the disc.
# (§2) From these strains the new aliphatic polyketide compound 1 and three related sesquiterpenes (IIa), (IIb) and (III) were isolated and characterized (see FIG. 1). Compound (III) is reported for the first time as a natural product and the E/Z conformational isomers (IIa) and (IIb) are reported as new structures (see FIG. 1). Additionally, the three known macrolides; pyrenophorol (IV), dihydropyrenophorin (V) and pyrenophorin (VI) were isolated and identified. Their structures were elucidated by spectroscopic analyses including 2D NMR, HRMS and by comparison to literature data where available.
# (§3) The results of the Oxford disc assay using the isolated compounds confirmed these observations for both S. cerevisae and Microbotryum violaceum. A quantitative test protocol based on cell density using OD measurements at 600 nm in 96 well microplates was employed.
# (§4) Disc diffusion assays with the extracts were employed for preliminary antifungal testing using Saccharomyces cerevisae for all strains (Sumarah et al., 2008b). […] The individual compounds were further tested using these two fungi in 96 well microplates where 10 μL of 1 mg/mL (˜4 μM) of each compound in DMSO was added to 200 μL of the above macerated cultures. The plates were incubated at room temperature with constant shaking and were measured at 600 nm. The antifungal compound nystatin was used as the positive control for all experiments.
# Microbotryum violaceum [2] = assay: Disc diffusion (Oxford) antifungal assay, rust; details: isolated compounds, rust grown on MYP
# Experimental: as §1, §2, §3, §4
# Saccharomyces cerevisae [3] = assay: Quantitative cell density test, OD 600 nm, 96 well microplates, yeast; details: for reduction in cell density vs controls (OD 600 nm): S. cerevisae, 24 hours, 10 μL of 1 mg/mL (˜4 μM) compound in DMSO added to 200 μL culture, ANOVA p<0.000
# Description: as §3, §4
# Microbotryum violaceum [4] = assay: Quantitative cell density test, OD 600 nm, 96 well microplates, rust; details: M. violaceum, 48 hours; 10 μL of 1 mg/mL (˜4 μM) compound in DMSO added to 200 μL culture; ANOVA p<0.000
# Description: as §3, §4
SMILES,antifungal activity against Saccharomyces cerevisae (Saccharomyces cerevisae [1]),antifungal activity against Microbotryum violaceum (Microbotryum violaceum [2]),"antifungal activity against Microbotryum violaceum (Microbotryum violaceum [2]; listed as (2E,4Z)-methyl-6-acetoxy-5-acetyl-7-oxohepta-2,4-dienoate)",reduction in cell density vs controls (OD 600 nm) (Saccharomyces cerevisae [3]),reduction in cell density vs controls (OD 600 nm) (Microbotryum violaceum [4]),antifungal activity against Microbotryum violaceum (Microbotryum violaceum [2]; listed as 2),"rank of antifungal effect among compounds 1, (III) and (IV) (Saccharomyces cerevisae [3]; based on results of the response at 24 h)",antifungal activity against Microbotryum violaceum (Microbotryum violaceum [2]; listed as 5)
"COC(=O)/C=C\C=C(\C=O)C(OC(C)=O)C(C)=O (stereo not shown) [Compound 1, (2Z,4E)-methyl-6-acetoxy-5-formyl-7-oxo-octa-2,4-dienoate]",antifungal activity,antifungal activity,antifungal activity,Statistically-significant reductions in cell density,Statistically-significant reductions in cell density,,,
"CC1(C)CCCC(C)(c2ccc(CO)cc2O)O1 (stereo not shown) [Compound (III), 5-(hydroxymethyl)-2-(2′,6′,6′-trimethyltetrahydro-2H-pyran-2-yl)phenol]",antifungal activity,antifungal activity,,Statistically-significant reductions in cell density,Statistically-significant reductions in cell density,antifungal activity,most antifungal,
"C[C@@H]1CC[C@H](O)/C=C/C(=O)O[C@H](C)CC[C@H](O)/C=C/C(=O)O1 [Compound (IV), pyrenophorol]",antifungal activity,antifungal activity,,Statistically-significant reductions in cell density,Statistically-significant reductions in cell density,,,antifungal activity
